Assay results published in article PMC8869731, “KasQ an Epimerase Primes the Biosynthesis of Aminoglycoside Antibiotic Kasugamycin and KasF/H Acetyltransferases Inactivate Its Activity” (Biomedicines, 2022).
Read-outs that look alike come from different tables or passages of the source.

Legend:
KasQ = KasQ (Streptomyces kasugaensis, UniProt A0A0K1H2R6); test: Isothermal titration calorimetry (ITC) of KasQ wild type versus substrates; format: binding; conditions: for ∆G / ∆H / ∆S / Kd / n: KasQ wild type; for Kd / n: 25 °C, 50 mM HEPES pH 8.0, 100 mM NaCl; for n: ITC binding stoichiometry;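 for all read-outs here: titration of 1 mM substrate into 0.1 mM KasQ, 18 injections spaced 120 s, data fitted to a single-site binding model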
Protocol: (§3) ITC analyses were carried out at 25 °C using an ITC200 microcalorimeter (MicroCal Inc., Northampton, MA, USA). […] The titration experiment contains 18 injections (2 μL for a duration of 4 s) and each injection was separated by 120 s. The distilled water was filled in the reference cell throughout all titrations. The cell stirring speed was 1000 rpm. The collected raw data were processed in Origin 7.0 (provided by MicroCal) by a non-linear least square method to a single-site binding model.

KasH = KasH (Streptomyces kasugaensis, UniProt A0A0K1H2T0); test: ITC of KasH versus ligands; conditions: KasH; for n: ITC binding stoichiometry; for n / Kd: 50 mM MOPS pH 7.5, 100 mM NaCl; for ∆G / ∆H / ∆S / Kd: ITC;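 for all read-outs here: isothermal titration calorimetry at 25 °C, 0.1 mM KasH in the cell titrated with 1 mM ligand over 18 injections, data fit with a one-site binding model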
Protocol: as §3

KasQ Q95A = KasQ Q95A (Streptomyces kasugaensis, UniProt A0A0K1H2R6, Q95A); test: biochemical; format: binding
Protocol: (§1) Site-directed mutagenesis was performed using QuikChange (Stratagene), following the manufacturer’s protocol. The wild-type KasQ plasmid (BCRC12349) was used as the template for the single mutation. All mutations were confirmed by DNA sequencing. KasQ mutants were expressed and purified with the same protocol as used for the wild-type protein.
(§2) The cell stirring speed was 1000 rpm.

KasQ E308A = KasQ E308A (Streptomyces kasugaensis, UniProt A0A0K1H2R6, E308A); test: biochemical; format: binding
Protocol: as §1, §2

KasQ Q95E = KasQ Q95E (Streptomyces kasugaensis, UniProt A0A0K1H2R6, Q95E); test: biochemical; format: binding
Protocol: as §1, §2

KasH, sequence (A0A0K1H2T0 entry or part of it): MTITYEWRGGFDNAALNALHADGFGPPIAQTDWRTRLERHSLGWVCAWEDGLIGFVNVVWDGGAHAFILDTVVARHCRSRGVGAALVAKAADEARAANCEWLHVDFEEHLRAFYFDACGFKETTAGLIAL
KasQ E308A, sequence (A0A0K1H2R6 entry or part of it E308A): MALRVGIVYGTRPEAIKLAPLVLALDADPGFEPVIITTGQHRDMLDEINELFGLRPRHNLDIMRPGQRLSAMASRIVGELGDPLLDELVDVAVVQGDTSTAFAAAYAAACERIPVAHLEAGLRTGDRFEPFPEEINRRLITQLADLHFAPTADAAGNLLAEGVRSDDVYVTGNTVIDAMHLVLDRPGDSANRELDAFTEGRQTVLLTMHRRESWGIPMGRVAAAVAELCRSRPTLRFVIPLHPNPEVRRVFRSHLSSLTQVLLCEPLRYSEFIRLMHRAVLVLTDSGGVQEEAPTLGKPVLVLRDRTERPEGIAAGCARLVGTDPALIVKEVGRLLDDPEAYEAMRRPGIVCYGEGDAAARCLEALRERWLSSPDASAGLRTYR
KasQ, sequence (A0A0K1H2R6 entry or part of it): as the sequence (A0A0K1H2R6 entry or part of it E308A) above
KasQ Q95A, sequence (A0A0K1H2R6 entry or part of it Q95A): as the sequence (A0A0K1H2R6 entry or part of it E308A) above, with Q95A counted along it
KasQ Q95E, sequence (A0A0K1H2R6 entry or part of it Q95E): as the sequence (A0A0K1H2R6 entry or part of it E308A) above, with Q95E counted along it

Structure (SMILES) | ∆G (KasQ; ITC) | ∆H (KasQ; ITC) | ∆S (KasQ; ITC) | Kd (KasQ; ITC) | also measured
CC(=O)N[C@H]1C(O)O[C@H](CO)[C@H](O)[C@@H]1O (some centres unmarked) [GalNAc] | NBD | NBD | NBD | NBD | –
CC(C)CC(=O)SCCNC(=O)CCNC(=O)[C@H](O)C(C)(C)COP(=O)(O)OP(=O)(O)OC[C@H]1O[C@@H](n2cnc3c(N)ncnc32)[C@H](O)[C@@H]1OP(=O)(O)O [Isovaleryl-CoA, isovaleryl-CoA] | – | – | – | – | n (KasH): 1.0 ± 0.7; ∆G (KasH): -5.048 ± 3.166 kcal/mol; ∆H (KasH): -3.116 ± 3.166 kcal/mol; ∆S (KasH): 6.48 cal mol-1 K-1; Kd (KasH): 199 µM
CC(=O)N[C@H]1[C@@H](OP(=O)(O)OP(=O)(O)OC[C@H]2O[C@@H](n3ccc(=O)[nH]c3=O)[C@H](O)[C@@H]2O)O[C@H](CO)[C@H](O)[C@@H]1O [UDP-GalNAc] | -4.742 ± 1.700 kcal/mol | -3.418 ± 1.700 kcal/mol | 4.44 cal mol^−1 K^−1 | – | n (KasQ): 1.8 ± 0.4
Nc1ncnc2c1ncn2[C@@H]1O[C@H](COP(=O)(O)OP(=O)(O)OP(=O)(O)O)[C@@H](O)[C@H]1O [ATP] | NBD | NBD | NBD | nor AMP, ADP, ATP, GMP, GDP, or GTP shows detectable binding affinity and NBD | –
Nc1nc2c(ncn2[C@@H]2O[C@H](COP(=O)(O)OP(=O)(O)OP(=O)(O)O)[C@@H](O)[C@H]2O)c(=O)[nH]1 [GTP] | NBD | NBD | NBD | nor AMP, ADP, ATP, GMP, GDP, or GTP shows detectable binding affinity and NBD | –
Nc1nc2c(ncn2[C@@H]2O[C@H](COP(=O)(O)OP(=O)(O)O)[C@@H](O)[C@H]2O)c(=O)[nH]1 [GDP] | NBD | NBD | NBD | nor AMP, ADP, ATP, GMP, GDP, or GTP shows detectable binding affinity and NBD | –
O=c1ccn([C@@H]2O[C@H](COP(=O)(O)OP(=O)(O)O)[C@@H](O)[C@H]2O)c(=O)[nH]1 [UDP 3] | -6.128 ± 0.5523 kcal/mol | -4.130 ± 0.5523 kcal/mol | 6.70 cal mol^−1 K^−1 | – | n (KasQ): 1.0 ± 0.0; Kd (KasQ; ITC, read-out: Kd): 32.2 ± 6.8 µM; binding affinity versus KasQ relative to UMP, UTP and TTP (KasQ; ITC, higher than that of the others): 2–5 fold
CC(=O)SCCNC(=O)CCNC(=O)[C@H](O)C(C)(C)COP(=O)(O)OP(=O)(O)OC[C@H]1O[C@@H](n2cnc3c(N)ncnc32)[C@H](O)[C@@H]1OP(=O)(O)O [AcCoA] | – | – | – | – | n (KasH): 1.3 ± 0.4; ∆G (KasH): -5.240 ± 8.196 kcal/mol; ∆H (KasH): -14.19 ± 8.196 kcal/mol; ∆S (KasH): -30.02 cal mol-1 K-1; Kd (KasH): 161 µM
OC[C@H]1OC(O)[C@@H](O)[C@@H](O)[C@@H]1O (stereo partly drawn) [D-Mannose] | NBD | NBD | NBD | NBD | –
CC(=O)CC(=O)SCCNC(=O)CCNC(=O)[C@H](O)C(C)(C)COP(=O)(O)OP(=O)(O)OC[C@H]1O[C@@H](n2cnc3c(N)ncnc32)[C@H](O)[C@@H]1OP(=O)(O)O [Acetoacetyl-CoA, acetoacetyl-CoA] | – | – | – | – | n (KasH): 0.5 ± 0.1; ∆G (KasH): -5.469 ± 2.477 kcal/mol; ∆H (KasH): -6.149 ± 2.477 kcal/mol; ∆S (KasH): -2.28 cal mol-1 K-1; Kd (KasH): 98 µM
N[C@H]1C(O)O[C@H](CO)[C@@H](O)[C@@H]1O (some centres unmarked) [GlcNH2] | NBD | NBD | NBD | NBD | –
O=C(O)[C@H]1O[C@H](OP(=O)(O)OP(=O)(O)OC[C@H]2O[C@@H](n3ccc(=O)[nH]c3=O)[C@H](O)[C@@H]2O)[C@H](O)[C@@H](O)[C@@H]1O [UDP-GlcA] | -5.61 ± 0.5751 kcal/mol | -1.376 ± 0.5751 kcal/mol | 14.2 cal mol^−1 K^−1 | – | n (KasQ): 1.5 ± 0.2; Kd (KasQ; ITC, read-out: Kd): 76.3 ± 15.2 µM; Kd (KasQ Q95A): 44.4 µM; n (KasQ Q95A; ITC binding stoichiometry, KasQ mutant Q95A): 1.7 ± 0.0; ∆G (KasQ Q95A; ITC, KasQ mutant Q95A): -5.922 ± 0.0847 kcal/mol; ∆H (KasQ Q95A; ITC, KasQ mutant Q95A): -0.6748 ± 0.0847 kcal/mol; ∆S (KasQ Q95A; ITC, KasQ mutant Q95A): 17.6 cal mol-1 K-1; Kd (KasQ E308A): 106 µM; n (KasQ E308A; ITC binding stoichiometry, KasQ mutant E308A): 1.1 ± 0.7; ∆G (KasQ E308A; ITC, KasQ mutant E308A): -5.421 ± 3.692 kcal/mol; ∆H (KasQ E308A; ITC, KasQ mutant E308A): -3.194 ± 3.692 kcal/mol; ∆S (KasQ E308A; ITC, KasQ mutant E308A): 7.47 cal mol-1 K-1; Kd (KasQ Q95E): 11.8 µM; n (KasQ Q95E; ITC binding stoichiometry, KasQ mutant Q95E): 2.1 ± 0.1; ∆G (KasQ Q95E; ITC, KasQ mutant Q95E): -7.15 ± 0.0195 kcal/mol; ∆H (KasQ Q95E; ITC, KasQ mutant Q95E): -0.4413 ± 0.0195 kcal/mol; ∆S (KasQ Q95E; ITC, KasQ mutant Q95E): 22.5 cal mol-1 K-1
CCC(=O)SCCNC(=O)CCNC(=O)[C@H](O)C(C)(C)COP(=O)(O)OP(=O)(O)OC[C@H]1O[C@@H](n2cnc3c(N)ncnc32)[C@H](O)[C@@H]1OP(=O)(O)O [Propionyl-CoA, propionyl-CoA] | – | – | – | – | n (KasH): 0.5 ± 0.0; ∆G (KasH): -6.081 ± 0.3918 kcal/mol; ∆H (KasH): -7.351 ± 0.3918 kcal/mol; ∆S (KasH): -4.26 cal mol-1 K-1; Kd (KasH): 35 µM
CC(=O)N[C@H]1C(O)O[C@H](CO)[C@@H](O)[C@@H]1O (some centres unmarked) [GlcNAc] | NBD | NBD | NBD | NBD | –
Nc1ncnc2c1ncn2[C@@H]1O[C@H](COP(=O)(O)OP(=O)(O)O)[C@@H](O)[C@H]1O [ADP] | NBD | NBD | NBD | nor AMP, ADP, ATP, GMP, GDP, or GTP shows detectable binding affinity and NBD | –
O=C[C@H](O)[C@@H](O)[C@@H](O)[C@H](O)CO [D-Galactose] | NBD | NBD | NBD | NBD | –
O=c1ccn([C@@H]2O[C@H](COP(=O)(O)OP(=O)(O)OP(=O)(O)O)[C@@H](O)[C@H]2O)c(=O)[nH]1 [UTP] | -5.645 ± 1.340 kcal/mol | -9.104 ± 1.340 kcal/mol | −11.6 cal mol^−1 K^−1 | – | n (KasQ): 1.0 ± 0.0; Kd (KasQ; ITC, read-out: Kd): 71.4 ± 5.7 µM
CC(C)(COP(=O)(O)OP(=O)(O)OC[C@H]1O[C@@H](n2cnc3c(N)ncnc32)[C@H](O)[C@@H]1OP(=O)(O)O)[C@@H](O)C(=O)NCCC(=O)NCCS [CoA] | – | – | – | – | n (KasH): 0.6 ± 0.0; ∆G (KasH): -5.478 ± 1.342 kcal/mol; ∆H (KasH): -7.350 ± 1.342 kcal/mol; ∆S (KasH): -6.28 cal mol-1 K-1; Kd (KasH): 96.1 µM
Cc1cn([C@H]2C[C@H](O)[C@@H](COP(=O)(O)OP(=O)(O)O[C@H]3O[C@H](CO)[C@@H](O)[C@H](O)[C@H]3O)O2)c(=O)[nH]c1=O [TDP-Glc] | -6.273 ± 0.2773 kcal/mol | -4.568 ± 0.2773 kcal/mol | 5.72 cal mol^−1 K^−1 | – | n (KasQ): 0.3 ± 0.0; Kd (KasQ; ITC, read-out: Kd): 25.1 ± 0.2 µM
Nc1nc2c(ncn2[C@@H]2O[C@H](COP(=O)(O)O)[C@@H](O)[C@H]2O)c(=O)[nH]1 [GMP] | NBD | NBD | NBD | nor AMP, ADP, ATP, GMP, GDP, or GTP shows detectable binding affinity and NBD | –
Nc1nc2c(ncn2[C@@H]2O[C@H](COP(=O)(O)OP(=O)(O)OC3O[C@H](CO)[C@@H](O)[C@H](O)[C@H]3O)[C@@H](O)[C@H]2O)c(=O)[nH]1 (some centres unmarked) [GDP-Glc] | NBD | NBD | NBD | NBD | –
CC(=O)NC1=CO[C@H](CO)[C@@H](O)[C@@H]1O [AAG 2, 2-acetamidoglucal] | NBD | NBD | NBD | NBD | Kd (KasQ; ITC, listed as AAG): no binding affinity
O=C(O)[C@H]1OC(O)[C@H](O)[C@@H](O)[C@H]1O (some centres unmarked) [GalA] | NBD | NBD | NBD | NBD | –
Nc1ncnc2c1ncn2[C@@H]1O[C@H](COP(=O)(O)O)[C@@H](O)[C@H]1O [AMP] | NBD | NBD | NBD | nor AMP, ADP, ATP, GMP, GDP, or GTP shows detectable binding affinity and NBD | –
OC[C@H]1OC(O)[C@H](O)[C@@H](O)[C@@H]1O (stereo partly drawn) [D-Glucose] | NBD | NBD | NBD | NBD | –
Cc1cn([C@H]2C[C@H](O)[C@@H](COP(=O)(O)OP(=O)(O)OP(=O)(O)O)O2)c(=O)[nH]c1=O [TTP] | -5.128 ± 1.221 kcal/mol | -7.612 ± 1.221 kcal/mol | −8.33 cal mol^−1 K^−1 | – | n (KasQ): 1.1 ± 0.1; Kd (KasQ; ITC, read-out: Kd): 174 ± 20.2 µM
O=C(O)[C@H]1OC(O)[C@H](O)[C@@H](O)[C@@H]1O (some centres unmarked) [GlcA] | NBD | NBD | NBD | NBD | –
Nc1nc2c(ncn2[C@@H]2O[C@H](COP(=O)(O)OP(=O)(O)O[C@H]3O[C@H](CO)[C@@H](O)[C@H](O)[C@@H]3O)[C@@H](O)[C@H]2O)c(=O)[nH]1 [GDP-Man] | NBD | NBD | NBD | NBD | –
O=c1ccn([C@@H]2O[C@H](COP(=O)(O)O)[C@@H](O)[C@H]2O)c(=O)[nH]1 [UMP] | -13.19 ± 1.245 kcal/mol | -9.254 ± 1.245 kcal/mol | – | – | n (KasQ): 1.0 ± 0.0; Kd (KasQ; ITC, read-out: Kd): 124 ± 70.9 µM
